Where two headings read alike, the source gives them in different places. A value given as a limit tells only on which side of the number the result lay.

For the assay, the system named is C. parvum strain UGA1. Briefly: C. parvum growth inhibition assay (Nluc luminescence in HCT-8 cells). It is filed as cell-based, Cryptosporidium parvum. The following applies: Cryptosporidium parvum; for inhibition at 1 µM / inhibition at 10 µM: HCT-8; for inhibition at 1 µM: read-out: % inh @ 1 uM C. parvum; for inhibition at 10 µM: read-out: % inh @ 10 uM C. parvum; for EC50: HCT-8, 48 h, C. parvum growth inhibition in HCT-8 cells, 48 hours, 6 concentrations 10-0.04 μM.

Setting [1] is: single point inhibition at 1 uM.
[2] abbreviates: single point inhibition at 10 uM.
Where [3] appears, read: single point inhibition @ 10 uM.

Take `Cc1cc(-c2cc3cnc(NC(=O)c4cccc5cn[nH]c45)cc3[nH]2)ccn1` [Example 237, N-(2-(2-methylpyridin-4-yl)-1H-pyrrolo[3,2-c]pyridin-6-yl)-1H-indazole-7-carboxamide]: the inhibition at 1 µM under setting [1] was in the range of 0 to 33%. Also, the inhibition at 10 µM under setting [2] is 33 to 66%.
`N#Cc1cc2cnc(Nc3cc(-c4nc[nH]n4)cc(C4CCOCC4)c3)cc2[nH]1` [Example 208, 6-(3-(tetrahydro-2H-pyran-4-yl)-5-(1H-1,2,4-triazol-3-yl)phenylamino)-1H-pyrrolo[3,2-c]pyridine-2-carbonitrile]: the inhibition at 1 µM under setting [1] lay in the range of 0 to 33%. For the same compound, under setting [2], the inhibition at 10 µM fell in the range of 67 to 100%.
As a reminder, the EC50 is the concentration at which the effect is half-maximal. Read a low EC50 as higher potency in that assay. The compound `Cn1cc(C(=O)Nc2cc3[nH]c(-c4cnco4)cc3cn2)cn1` [Example 64, 1-methyl-N-(2-(oxazol-5-yl)-1H-pyrrolo[3,2-c]pyridin-6-yl)-1H-pyrazole-4-carboxamide] came in with an EC50 of over 1 µM. Also, the inhibition at 1 µM (single point inhibition @ 1 uM) was 0 to 33%. The inhibition at 10 µM under setting [3] was in the range of 33 to 66%.
Take `CCOc1nccc(-c2cc3cnc(NC(=O)c4cn(CCO)nc4C)cc3[nH]2)n1` [Example 233, N-(2-(2-ethoxypyrimidin-4-yl)-1H-pyrrolo[3,2-c]pyridin-6-yl)-1-(2-hydroxyethyl)-3-methyl-1H-pyrazole-4-carboxamide]: the inhibition at 1 µM under setting [1] lay in the range of 0 to 33%. Moreover, under setting [2], the inhibition at 10 µM was 33 to 66%.
Consider `CO[C@H]1C[C@@H](C(=O)Nc2cc3[nH]c(-c4ccnc(C)c4)cc3cn2)C1` [Example 191, (1s,3s)-3-methoxy-N-(2-(2-methylpyridin-4-yl)-1H-pyrrolo[3,2-c]pyridin-6-yl)cyclobutanecarboxamide], for which the inhibition at 1 µM (single point inhibition @ 1 uM) was 0 to 33%. Besides, the inhibition at 10 µM under setting [3] was in the range of 67 to 100%.
For the compound `Cn1cc(-c2cc3cnc(NC4CCOCC4)cc3n2C)cn1` [Example 223, 1-methyl-2-(1-methyl-1H-pyrazol-4-yl)-N-(tetrahydro-2H-pyran-4-yl)-1H-pyrrolo[3,2-c]pyridin-5-amine], under setting [1], the inhibition at 1 µM fell in the range of 0 to 33%. The inhibition at 10 µM under setting [2] lay in the range of 33 to 66%.
In the case of `Cn1cc(-c2cc3cnc(Nc4ccc(F)cc4)cc3n2C)cn1` [Example 235, N-(4-fluorophenyl)-1-methyl-2-(1-methyl-1H-pyrazol-4-yl)-1H-pyrrolo[3,2-c]pyridin-6-amine], the inhibition at 1 µM under setting [1] was in the range of 0 to 33%. In addition, the inhibition at 10 µM under setting [2] was in the range of 33 to 66%.
On to `Cn1cc(C(=O)Nc2cc3[nH]c(-c4ccnc(OCC(C)(C)C)n4)cc3cn2)cn1` [Example 319, 1-methyl-N-(2-(2-(neopentyloxy)pyrimidin-4-yl)-1H-pyrrolo[3,2-c]pyridin-6-yl)-1H-pyrazole-4-carboxamide], for which the inhibition at 1 µM under setting [1] is 0 to 33%. Also, under setting [2], the inhibition at 10 µM lay within 0 to 33%.
As to `Cn1cc(Nc2cc3[nH]c(C#N)cc3cn2)cn1` [Example 164, 6-(1-methyl-1H-pyrazol-4-ylamino)-1H-pyrrolo[3,2-c]pyridine-2-carbonitrile], the inhibition at 1 µM (single point inhibition @ 1 uM) was 0 to 33%. Moreover, under setting [3], the inhibition at 10 µM fell in the range of 67 to 100%.
On to `O=C(Nc1cc2[nH]c(-c3ccncc3)cc2cn1)c1cnn(C2CCOCC2)c1` [Example 154, N-(2-(pyridin-4-yl)-1H-pyrrolo[3,2-c]pyridin-6-yl)-1-(tetrahydro-2H-pyran-4-yl)-1H-pyrazole-4-carboxamide], for which the inhibition at 1 µM (single point inhibition @ 1 uM) fell in the range of 0 to 33%. Moreover, under setting [3], the inhibition at 10 µM lay within 67 to 100%.
`Cc1cc(-c2cc3cnc(NC(=O)C(C)O)cc3[nH]2)ccn1` (stereo in doubt) [Example 307, (S)-2-hydroxy-N-(2-(2-methylpyridin-4-yl)-1H-pyrrolo[3,2-c]pyridin-6-yl)propanamide]: the inhibition at 1 µM under setting [1] is 0 to 33%. Besides, the inhibition at 10 µM under setting [2] is 0 to 33%.
For the compound `CC(Oc1nccc(-c2cc3cnc(NC(=O)c4cnn(C)c4)cc3[nH]2)n1)C(F)F` (stereo not shown) [Example 141, N-(2-(2-(1,1-difluoropropan-2-yloxy)pyrimidin-4-yl)-1H-pyrrolo[3,2-c]pyridin-6-yl)-1-methyl-1H-pyrazole-4-carboxamide], the inhibition at 1 µM (single point inhibition @ 1 uM) was in the range of 0 to 33%. Moreover, the inhibition at 10 µM under setting [3] lay within 67 to 100%.
Compound `Cn1cc(-c2cc3cnc(Nc4ccccc4)cc3n2C)cn1` [Example 70, 1-methyl-2-(1-methyl-1H-pyrazol-4-yl)-N-phenyl-1H-pyrrolo[3,2-c]pyridin-6-amine] registered an EC50 of over 1 µM. Also, for the setting “single point inhibition @ 1 uM”, the inhibition at 1 µM was 33 to 66%. Besides, under setting [3], the inhibition at 10 µM was 67 to 100%.
`Cc1cc(-c2cc3cnc(NC4CCN(C)CC4)cc3n2C)ncn1` [Example 117, 1-methyl-N-(1-methylpiperidin-4-yl)-2-(6-methylpyrimidin-4-yl)-1H-pyrrolo[3,2-c]pyridin-6-amine] had an EC50 of over 1 µM.
For `Cc1cc(C(=O)Nc2cc3[nH]c(-c4ccncc4)cc3cn2)nn1C` [Example 282, 1,5-dimethyl-N-(2-(pyridin-4-yl)-1H-pyrrolo[3,2-c]pyridin-6-yl)-1H-pyrazole-3-carboxamide], the inhibition at 1 µM under setting [1] was in the range of 0 to 33%. For the same compound, under setting [2], the inhibition at 10 µM was 0 to 33%.
In the case of `Cc1cc(-c2cc3cnc(N(C)C(=O)C4CC4)cc3[nH]2)ccn1` [Example 86, N-methyl-N-(2-(2-methylpyridin-4-yl)-1H-pyrrolo[3,2-c]pyridin-6-yl)cyclopropanecarboxamide], the EC50 is over 1 µM. Further, the inhibition at 1 µM (single point inhibition @ 1 uM) was 33 to 66%. Moreover, under setting [3], the inhibition at 10 µM lay in the range of 0 to 33%.

For the origin of these results see US20240124444A1 (Celgene Corporation, priority 2020, published 2024).
